For one assay, the system named is microorganisms. Nature of the assay: Morphology, biofilm and growth disruption by peptides (Table 5). It is filed as cell-based. Set-up: key: A: Peptide aggregates; B: Less hyphal formation; Clumps; Diffuse clumps and small polyps; F: Diffuse growth; H: Thin; I: Growth inhibition; Microcolony formation; Rippled; Small polyps; Thick; W: Halo formation on top, microlonies on bottom. The source says: In certain embodiments peptides that induce alterations in phenotype or other biological activities can also be used as antimicrobial effector moieties.

For the next assay, the system named is bacteria. Nature of the assay: Binding of targeting peptides to microorganisms (Table 3). To be noted: peptide binding in aqueous buffers that varied depending on peptide solubility; preferably 1x PBS.

Entries after “also recorded” stand apart in the source; their conditions may differ.

For the substance “PF-632 (chain 1 TTIQGVASLEKHGFRYTIIYPTRI; chain 2 TTIQGVASLEKHGFRYTIIYPTRI; Peptide with targeting and/or antimicrobial activity)”, the “Organism, effect (morphology, biofilm and growth disruption)” value in the assay with microorganisms (B. subtilis) is listed as “B. subtilis (H)”; in the assay on microorganisms (C. albicans) it was “C. albicans (B)”; in the assay on microorganisms (C. jeikeium), “C. jeikeium (D)”; with microorganisms (E. faecalis) it was “E. faecalis (D)”; in the assay with microorganisms (MRSA), “MRSA (D)”; in the assay on microorganisms (S. epidermidis) it was “S. epidermidis (D)”. Also, in the assay with microorganisms (S. pneumoniae), the “Organism, effect (morphology, biofilm and growth disruption)” value is “S. pneumoniae (M)”. For the same substance, the “Target(s) (microorganism bound by the targeting peptide)” value in the assay on bacteria is “S. epidermidis and P. aeruginosa and C. albicans and MRSA and S. pneumoniae and E. faecalis and C. jeikeium”.
For the substance “PF-636 (chain 1 LVRLA; chain 2 LVRLA; Peptide with targeting and/or antimicrobial activity)”, the “Organism, effect (morphology, biofilm and growth disruption)” value in the assay on microorganisms (B. subtilis) is “B. subtilis (H)”; in the assay on microorganisms (C. albicans), “C. albicans (B)”; in the assay with microorganisms (E. faecalis), “E. faecalis (H)”; in the assay on microorganisms (S. pneumoniae) it was “S. pneumoniae (H)”. Moreover, the “Target(s) (microorganism bound by the targeting peptide)” value in the assay with bacteria is “S. epidermidis and C. albicans and MRSA and S. pneumoniae and E. faecalis”.
In the case of “PF-637 (chain 1 SRIKQDARSVRKYDRIGIFFYSFKSA; chain 2 SRIKQDARSVRKYDRIGIFFYSFKSA; Peptide with targeting and/or antimicrobial activity)”, the “Organism, effect (morphology, biofilm and growth disruption)” value in the assay with microorganisms (C. jeikeium) is listed as “C. jeikeium (D)”; in the assay with microorganisms (E. faecalis), “E. faecalis (D)”; with microorganisms (MRSA), “MRSA (M)”; with microorganisms (S. epidermidis), “S. epidermidis (M)”; in the assay on microorganisms (S. pneumoniae), “S. pneumoniae (M)”. The “Target(s) (microorganism bound by the targeting peptide)” value with bacteria is “S. epidermidis and P. aeruginosa and C. albicans and MRSA and S. pneumoniae and E. faecalis and C. jeikeium”.
“PF-638 (chain 1 TFILPK; chain 2 TFILPK; Peptide with targeting and/or antimicrobial activity)”: the “Organism, effect (morphology, biofilm and growth disruption)” value is on record as “E. faecalis (H)” with microorganisms (E. faecalis), “MRSA (M)” in the assay with microorganisms (MRSA), “S. epidermidis (R)” with microorganisms (S. epidermidis) and “S. pneumoniae (I)” in the assay on microorganisms (S. pneumoniae). Besides, in the assay on bacteria, the “Target(s) (microorganism bound by the targeting peptide)” value was “S. epidermidis and C. albicans and MRSA and C. jeikeium”.
As to “PF-639 (chain 1 QATQIKSWIDRLLVSED; chain 2 QATQIKSWIDRLLVSED; Peptide with targeting and/or antimicrobial activity)”, the “Organism, effect (morphology, biofilm and growth disruption)” value is listed as “C. albicans (B)” with microorganisms (C. albicans), “E. faecalis (H)” in the assay with microorganisms (E. faecalis), “MRSA (R)” in the assay with microorganisms (MRSA) and “S. pneumoniae (I)” in the assay with microorganisms (S. pneumoniae). In addition, in the assay with bacteria, the “Target(s) (microorganism bound by the targeting peptide)” value was “S. pneumoniae; also recorded: C. jeikeium”.
Consider “PF-640 (chain 1 MGDINRNF; chain 2 MGDINRNF; Peptide with targeting and/or antimicrobial activity)”, for which the figures for the “Organism, effect (morphology, biofilm and growth disruption)” value with microorganisms (C. albicans), with microorganisms (E. faecalis) and with microorganisms (S. pneumoniae) were “C. albicans (B)”, “E. faecalis (H)” and “S. pneumoniae (I)”, respectively. Besides, the “Target(s) (microorganism bound by the targeting peptide)” value with bacteria is listed as “C. albicans”.
Regarding “PF-642 (chain 1 FTTPMIGIPAGLLGGSYYLKRREEKGK; chain 2 FTTPMIGIPAGLLGGSYYLKRREEKGK; Peptide with targeting and/or antimicrobial activity)”, the “Organism, effect (morphology, biofilm and growth disruption)” value with microorganisms (MRSA) was “MRSA (M)”. For the same substance, in the assay on bacteria, the “Target(s) (microorganism bound by the targeting peptide)” value is “M. luteus and MRSA and C. jeikeium”.
For “PF-643 (chain 1 VRCRL; chain 2 VRCRL; Peptide with targeting and/or antimicrobial activity)”, the entries for the “Organism, effect (morphology, biofilm and growth disruption)” value in the assay with microorganisms (E. faecalis), with microorganisms (MRSA) and in the assay on microorganisms (S. pneumoniae) were “E. faecalis (R)”, “MRSA (C)” and “S. pneumoniae (R)”, respectively. Also, in the assay on bacteria, the “Target(s) (microorganism bound by the targeting peptide)” value was “Mycobacteria spp”.
As to “PF-644 (chain 1 TSGLIIGENGLNGL; chain 2 TSGLIIGENGLNGL; Peptide with targeting and/or antimicrobial activity)”, in the assay on microorganisms (S. pneumoniae), the “Organism, effect (morphology, biofilm and growth disruption)” value was “S. pneumoniae (H)”. Further, the “Target(s) (microorganism bound by the targeting peptide)” value in the assay on bacteria was “Mycobacteria spp”.
As to “PF-645 (chain 1 SNSVQQG; chain 2 SNSVQQG; Peptide with targeting and/or antimicrobial activity)”, the entries for the “Organism, effect (morphology, biofilm and growth disruption)” value in the assay on microorganisms (C. albicans) and in the assay with microorganisms (S. pneumoniae) were “C. albicans (B)” and “S. pneumoniae (I)”, respectively. In addition, the “Target(s) (microorganism bound by the targeting peptide)” value with bacteria is given as “Mycobacteria spp”.
For the substance “PF-646 (chain 1 APASPGRRPG; chain 2 APASPGRRPG; Peptide with targeting and/or antimicrobial activity)”, the “Organism, effect (morphology, biofilm and growth disruption)” value is listed as “C. albicans (B)” with microorganisms (C. albicans) and “S. pneumoniae (H)” in the assay with microorganisms (S. pneumoniae). The “Target(s) (microorganism bound by the targeting peptide)” value in the assay with bacteria is “Mycobacteria spp”.
The matching figures for “PF-647 (chain 1 GTFLGQKCAAATAS; chain 2 GTFLGQKCAAATAS; Peptide with targeting and/or antimicrobial activity)”: “C. albicans (B)”, “S. pneumoniae (R)” and “Mycobacteria spp”.
Turning to “PF-649 (chain 1 CPRYPFVDVGPAGPWRARWRVGS; chain 2 CPRYPFVDVGPAGPWRARWRVGS; Peptide with targeting and/or antimicrobial activity)”, in the assay on microorganisms (E. faecalis), the “Organism, effect (morphology, biofilm and growth disruption)” value is listed as “E. faecalis (R)”. Also, in the assay with bacteria, the “Target(s) (microorganism bound by the targeting peptide)” value is given as “Mycobacteria spp”.
For the substance “PF-651 (chain 1 PRWPTGAGRHR; chain 2 PRWPTGAGRHR; Peptide with targeting and/or antimicrobial activity)”, in the assay on microorganisms (S. pneumoniae), the “Organism, effect (morphology, biofilm and growth disruption)” value is “S. pneumoniae (H)”. Further, the “Target(s) (microorganism bound by the targeting peptide)” value in the assay on bacteria is given as “Mycobacteria spp”.
Take “PF-652 (chain 1 FLAPARPDLQAQRQALAQ; chain 2 FLAPARPDLQAQRQALAQ; Peptide with targeting and/or antimicrobial activity)”: the “Organism, effect (morphology, biofilm and growth disruption)” value in the assay with microorganisms (S. pneumoniae) is on record as “S. pneumoniae (A)”. Besides, in the assay on bacteria, the “Target(s) (microorganism bound by the targeting peptide)” value is “Mycobacteria spp”.
For “PF-653 (chain 1 QSVHPLPAETPVADVI; chain 2 QSVHPLPAETPVADVI; Peptide with targeting and/or antimicrobial activity)”, the “Organism, effect (morphology, biofilm and growth disruption)” value with microorganisms (S. pneumoniae) is given as “S. pneumoniae (H)”. Also, in the assay with bacteria, the “Target(s) (microorganism bound by the targeting peptide)” value is given as “Mycobacteria spp”.
Turning to “PF-654 (chain 1 LSGRLAGRR; chain 2 LSGRLAGRR; Peptide with targeting and/or antimicrobial activity)”, the “Organism, effect (morphology, biofilm and growth disruption)” value is “C. albicans (B)” in the assay with microorganisms (C. albicans), “MRSA (R)” with microorganisms (MRSA) and “S. pneumoniae (A)” in the assay with microorganisms (S. pneumoniae). Besides, the “Target(s) (microorganism bound by the targeting peptide)” value in the assay with bacteria is reported as “Mycobacteria spp”.
Turning to “PF-655 (chain 1 DAPCFDDQFGDLKCQMC; chain 2 DAPCFDDQFGDLKCQMC; Peptide with targeting and/or antimicrobial activity)”, the “Organism, effect (morphology, biofilm and growth disruption)” value in the assay with microorganisms (B. subtilis) is on record as “B. subtilis (H)”; in the assay with microorganisms (MRSA), “MRSA (M)”; in the assay with microorganisms (S. epidermidis), “S. epidermidis (R)”; with microorganisms (S. pneumoniae), “S. pneumoniae (H)”. Moreover, the “Target(s) (microorganism bound by the targeting peptide)” value with bacteria is recorded as “M. smegmatis”.
For “PF-656 (chain 1 RGMFVPFHDVDCVQ; chain 2 RGMFVPFHDVDCVQ; Peptide with targeting and/or antimicrobial activity)”, the “Organism, effect (morphology, biofilm and growth disruption)” value in the assay with microorganisms (MRSA) is listed as “MRSA (R)”. Besides, the “Target(s) (microorganism bound by the targeting peptide)” value in the assay with bacteria is “Mycobacteria spp”.
Regarding “PF-657 (chain 1 YVANYTITQFGRDFDDRLAVAIHFA; chain 2 YVANYTITQFGRDFDDRLAVAIHFA; Peptide with targeting and/or antimicrobial activity)”, the “Organism, effect (morphology, biofilm and growth disruption)” value in the assay on microorganisms (C. jeikeium) was “C. jeikeium (D)”; in the assay on microorganisms (E. faecalis) it was “E. faecalis (D)”; in the assay on microorganisms (MRSA), “MRSA (D)”; with microorganisms (S. epidermidis) it was “S. epidermidis (C)”; in the assay with microorganisms (S. pneumoniae) it was “S. pneumoniae (H)”. Besides, the “Target(s) (microorganism bound by the targeting peptide)” value in the assay on bacteria was “Mycobacteria spp”.
Take “PF-658 (chain 1 PTTPPPTTPPEIPTGGTVIST; chain 2 PTTPPPTTPPEIPTGGTVIST; Peptide with targeting and/or antimicrobial activity)”: the figures for the “Organism, effect (morphology, biofilm and growth disruption)” value in the assay on microorganisms (MRSA) and in the assay on microorganisms (S. pneumoniae) were “MRSA (R)” and “S. pneumoniae (H)”, respectively. Besides, in the assay on bacteria, the “Target(s) (microorganism bound by the targeting peptide)” value is “Mycobacteria spp”.
As for “PF-659 (chain 1 TVIST; chain 2 TVIST; Peptide with targeting and/or antimicrobial activity)”, the “Organism, effect (morphology, biofilm and growth disruption)” value in the assay on microorganisms (B. subtilis) was “B. subtilis (H)”; with microorganisms (MRSA) it was “MRSA (R)”; with microorganisms (S. epidermidis) it was “S. epidermidis (M)”; in the assay on microorganisms (S. pneumoniae), “S. pneumoniae (C)”. Further, the “Target(s) (microorganism bound by the targeting peptide)” value in the assay on bacteria is recorded as “Mycobacteria spp”.
